What all share (experiment): relative viability (nuclei count vs DMSO), 5 days (fraction); higher = more cells survive
Compound in the test “Bortezomib + Linsitinib”: CC(C)C[C@H](NC(=O)[C@H](Cc1ccccc1)NC(=O)c1cnccn1)B(O)O [Bortezomib] + C[C@]1(O)C[C@@H](c2nc(-c3ccc4ccc(-c5ccccc5)nc4c3)c3c(N)nccn32)C1 [Linsitinib] (partner 1 µM)
The method in brief: (§1)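 Five library-drug doses in √10 steps were combined with a fixed anchor-drug dose, or a single drug was given alone, by pin tool to lung cancer cell lines in 1536-well plates the day after seeding. Nuclei were stained and counted after 5 days. Relative viability is the nuclei count in treated wells over that in vehicle wells, taken as the median of duplicate plates.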

Compound in test [1]: CC1=CC(=NN1)NC2=CC(=NC(=N2)/C=C/C3=CC=CC=C3)N4CCN(CC4)C + CS(=O)(=O)N1CCN(Cc2cc3nc(-c4cccc5[nH]ncc45)nc(N4CCOCC4)c3s2)CC1 [Pictilisib] (partner 1 µM)
The method in brief: as §1

Compound in the test “Obatoclax + Navitoclax”: COC1=CC(c2cc3ccccc3[nH]2)=N/C1=C\c1[nH]c(C)cc1C [Obatoclax] + CC1(C)CCC(c2ccc(Cl)cc2)=C(CN2CCN(c3ccc(C(=O)NS(=O)(=O)c4ccc(N[C@H](CCN5CCOCC5)CSc5ccccc5)c(S(=O)(=O)C(F)(F)F)c4)cc3)CC2)C1 [Navitoclax] (partner 0.5 µM)
The method in brief:
as §1

Compound in the test “Obatoclax + Linsitinib”: COC1=CC(c2cc3ccccc3[nH]2)=N/C1=C\c1[nH]c(C)cc1C [Obatoclax] + C[C@]1(O)C[C@@H](c2nc(-c3ccc4ccc(-c5ccccc5)nc4c3)c3c(N)nccn32)C1 [Linsitinib] (partner 1 µM)
The method, boiled down:
as §1

Consider RERF-LC-KJ, for which the relative viability with Bortezomib + Linsitinib (first compound 0.0002 µM) came out at 0.859; in the test with Bortezomib + Linsitinib (first compound 0.002 µM), 0.908; in the test with Bortezomib + Linsitinib (first compound 0.006325 µM), 0.366; with Bortezomib + Linsitinib (first compound 0.02 µM) it was 0.203; in test [1] (first compound 0.08 µM) it was 0.593; in test [1] (first compound 0.253 µM), 0.519. In addition, the relative viability is 0.495 in test [1] (first compound 0.8 µM); 0.27 in test [1] (first compound 2.53 µM); 0.168 in test [1] (first compound 8 µM); 1.04 with Obatoclax + Navitoclax (first compound 0.01 µM); 0.845 in the test with Obatoclax + Navitoclax (first compound 0.03162 µM); 0.729 with Obatoclax + Navitoclax (first compound 0.1 µM). In addition, the relative viability in the test with Obatoclax + Navitoclax (first compound 0.3162 µM) came to 0.875; with Obatoclax + Navitoclax (first compound 1 µM), 0.319; in the test with Obatoclax + Linsitinib (first compound 0.01 µM), 0.884; in the test with Obatoclax + Linsitinib (first compound 0.03162 µM), 0.947; with Obatoclax + Linsitinib (first compound 0.1 µM) it was 0.871; with Obatoclax + Linsitinib (first compound 0.3162 µM) it was 0.868. For the same cell line, the relative viability with Obatoclax + Linsitinib (first compound 1 µM) stood at 0.808.
SK-LU-1: the relative viability with Bortezomib + Linsitinib (first compound 0.0002 µM) was determined as 0.986; with Bortezomib + Linsitinib (first compound 0.000632 µM), 1.04; with Bortezomib + Linsitinib (first compound 0.002 µM), 1.42; in the test with Bortezomib + Linsitinib (first compound 0.006325 µM) it was 0.174; with Bortezomib + Linsitinib (first compound 0.02 µM), 0.159; in test [1] (first compound 0.08 µM), 0.595. Moreover, the relative viability in test [1] (first compound 0.253 µM) was 0.587; in test [1] (first compound 0.8 µM), 0.56; in test [1] (first compound 2.53 µM), 0.285; in test [1] (first compound 8 µM), 0.0825; with Obatoclax + Navitoclax (first compound 0.01 µM), 0.753; with Obatoclax + Navitoclax (first compound 0.03162 µM) it was 0.871. The relative viability with Obatoclax + Navitoclax (first compound 0.1 µM) is 0.424; in the test with Obatoclax + Navitoclax (first compound 0.3162 µM) it was 0.222; with Obatoclax + Navitoclax (first compound 1 µM), 0.216; with Obatoclax + Linsitinib (first compound 0.01 µM) it was 1.18; in the test with Obatoclax + Linsitinib (first compound 0.03162 µM) it was 1.17; with Obatoclax + Linsitinib (first compound 0.1 µM), 0.834. Moreover, the relative viability with Obatoclax + Linsitinib (first compound 0.3162 µM) was determined as 0.496; with Obatoclax + Linsitinib (first compound 1 µM), 0.419.
Turning to SK-MES-1, the relative viability with Bortezomib + Linsitinib (first compound 0.0002 µM) was 1.08; in the test with Bortezomib + Linsitinib (first compound 0.000632 µM), 1.06; in the test with Bortezomib + Linsitinib (first compound 0.002 µM), 1.1; with Bortezomib + Linsitinib (first compound 0.006325 µM) it was 0.54; in the test with Bortezomib + Linsitinib (first compound 0.02 µM), 0.189; in test [1] (first compound 0.08 µM), 0.341. Moreover, the relative viability in test [1] (first compound 0.253 µM) came to 0.357; in test [1] (first compound 0.8 µM), 0.279; in test [1] (first compound 2.53 µM), 0.168; in test [1] (first compound 8 µM), 0.134; with Obatoclax + Navitoclax (first compound 0.01 µM) it was 1.28; with Obatoclax + Navitoclax (first compound 0.03162 µM), 1.16. Further, the relative viability with Obatoclax + Navitoclax (first compound 0.1 µM) was found to be 1.22; with Obatoclax + Navitoclax (first compound 0.3162 µM), 1.03; with Obatoclax + Navitoclax (first compound 1 µM) it was 0.64; in the test with Obatoclax + Linsitinib (first compound 0.01 µM), 0.991; with Obatoclax + Linsitinib (first compound 0.03162 µM), 1.1; in the test with Obatoclax + Linsitinib (first compound 0.1 µM), 1.09. Further, the relative viability with Obatoclax + Linsitinib (first compound 0.3162 µM) was 0.98; with Obatoclax + Linsitinib (first compound 1 µM) it was 0.687.
Turning to SW 1573, the relative viability is 0.663 with Bortezomib + Linsitinib (first compound 0.0002 µM); 0.775 in the test with Bortezomib + Linsitinib (first compound 0.000632 µM); 0.766 with Bortezomib + Linsitinib (first compound 0.002 µM); 0.144 with Bortezomib + Linsitinib (first compound 0.006325 µM); 0.0774 with Bortezomib + Linsitinib (first compound 0.02 µM); 0.478 in test [1] (first compound 0.08 µM). For the same cell line, the relative viability in test [1] (first compound 0.253 µM) amounted to 0.478; in test [1] (first compound 0.8 µM) it was 0.393; in test [1] (first compound 2.53 µM), 0.179; in test [1] (first compound 8 µM), 0.0655; with Obatoclax + Navitoclax (first compound 0.01 µM), 1.04; with Obatoclax + Navitoclax (first compound 0.03162 µM), 0.788. The relative viability in the test with Obatoclax + Navitoclax (first compound 0.1 µM) came out at 0.989; in the test with Obatoclax + Navitoclax (first compound 0.3162 µM), 0.937; with Obatoclax + Navitoclax (first compound 1 µM), 0.267; in the test with Obatoclax + Linsitinib (first compound 0.01 µM), 0.768; in the test with Obatoclax + Linsitinib (first compound 0.03162 µM), 0.832; in the test with Obatoclax + Linsitinib (first compound 0.1 µM), 0.803. Further, the relative viability came out at 0.801 with Obatoclax + Linsitinib (first compound 0.3162 µM) and 0.81 in the test with Obatoclax + Linsitinib (first compound 1 µM).
For the cell line UMC-11, the relative viability in the test with Bortezomib + Linsitinib (first compound 0.0002 µM) worked out at 0.937; in the test with Bortezomib + Linsitinib (first compound 0.000632 µM) it was 0.974; in the test with Bortezomib + Linsitinib (first compound 0.002 µM), 0.936; with Bortezomib + Linsitinib (first compound 0.006325 µM) it was 0.375; with Bortezomib + Linsitinib (first compound 0.02 µM), 0.176; in test [1] (first compound 0.08 µM), 0.79. The relative viability was 0.813 in test [1] (first compound 0.253 µM); 0.606 in test [1] (first compound 0.8 µM); 0.158 in test [1] (first compound 2.53 µM); 0.108 in test [1] (first compound 8 µM); 0.315 with Obatoclax + Navitoclax (first compound 0.01 µM); 0.311 with Obatoclax + Navitoclax (first compound 0.03162 µM). In addition, the relative viability stood at 0.316 with Obatoclax + Navitoclax (first compound 0.1 µM); 0.299 with Obatoclax + Navitoclax (first compound 0.3162 µM); 0.111 in the test with Obatoclax + Navitoclax (first compound 1 µM); 1.04 with Obatoclax + Linsitinib (first compound 0.01 µM); 0.875 with Obatoclax + Linsitinib (first compound 0.03162 µM); 0.981 in the test with Obatoclax + Linsitinib (first compound 0.1 µM). Also, the relative viability with Obatoclax + Linsitinib (first compound 0.3162 µM) was found to be 0.81; in the test with Obatoclax + Linsitinib (first compound 1 µM), 0.885.
